Measured values as given in publication PMC11224940, “矩阵热转移技术鉴定有机酸类代谢物的结合蛋白质” (Chinese Journal of Chromatography, 2024).

Target: T1, FH (富马酸脱氢酶) (Homo sapiens, UniProt P07954)
T1 construct: endogenous protein in desalted HeLa cell lysate, native, no tag
T1 sequence (P07954 45-510): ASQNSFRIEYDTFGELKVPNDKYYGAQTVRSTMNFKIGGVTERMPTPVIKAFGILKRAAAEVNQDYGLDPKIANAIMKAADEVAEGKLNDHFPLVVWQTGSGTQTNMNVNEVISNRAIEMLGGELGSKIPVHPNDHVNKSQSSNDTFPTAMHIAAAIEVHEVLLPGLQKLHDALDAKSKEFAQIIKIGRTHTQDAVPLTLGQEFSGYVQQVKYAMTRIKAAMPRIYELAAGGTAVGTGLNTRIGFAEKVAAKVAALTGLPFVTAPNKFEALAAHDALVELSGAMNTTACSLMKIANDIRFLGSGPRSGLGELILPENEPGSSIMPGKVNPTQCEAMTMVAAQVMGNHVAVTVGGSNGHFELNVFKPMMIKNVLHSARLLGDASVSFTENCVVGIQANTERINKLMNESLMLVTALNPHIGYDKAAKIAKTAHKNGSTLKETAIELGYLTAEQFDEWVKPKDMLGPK
Assay: matrix thermal shift assay (mTSA), DIA proteomics, dose-response fit
Format: biochemical
Conditions: desalted HeLa lysate in PBS, endogenous metabolites removed, 50 min room temperature, then 52 ℃ 3 min; 0.004-2 mmol/L ligand; thermal stabilisation; only four ligand concentrations; read-out: 亲和力 (EC50)

O=C(O)/C=C/C(=O)O [富马酸]
EC50: 548 µM
